Tests used:
[1] = target: T1, 11β-HSD1 in primary human aortic smooth muscle cells (AoSMC) (Homo sapiens, UniProt P28845); assay: Human Aortic Smooth Muscle Cell Assay (cortisone to cortisol conversion); format: cell-based; conditions: hTNFα-induced 11β-HSD1, cortisol by time resolved immunoassay
T1 construct: containing 12 ng/mL hTNFα to induce expression of 11β-HSD1; endogenous in cells; host or cells: primary human aortic smooth muscle cells (AoSMC), induced with hTNFα
Method: Human Aortic Smooth Muscle Cell Assay
Primary human aortic smooth muscle cells (AoSMC) are cultured in 5% FBS growth medium to a passage number of 6, then pelleted by centrifugation and resuspended at a density of 9×10^4 cells/mL in 0.5% FBS assay medium containing 12 ng/mL hTNFα to induce expression of 11β-HSD1. Cells are seeded into 96-well tissue culture assay plates at 100 μL/well (9×10^3 cells/well) and incubated for 48 hours at 37° C., 5% CO2. Following induction, cells are incubated for 4 hours at 37° C., 5% CO2 in assay medium containing test compounds then treated with 10 μL/well of 10 μM cortisone solubilized in assay medium, and incubated for 16 hours at 37° C., 5% CO2. Medium from each well is transferred to a plate for subsequent analysis of cortisol using a competitive fluorescence resonance time resolved immunoassay. In solution, an allophycocyanin (APC)-cortisol conjugate and free cortisol analyte compete for binding to a mouse anti-cortisol antibody/Europium (Eu)-anti mouse IgG complex. Higher levels of free cortisol result in diminishing energy transfer from the Europium-IgG to the APC-cortisol complex resulting in less APC fluorescence. Fluorescent intensities for Europium and APC are measured using a LJL Analyst AD. Europium and APC excitation is measured using 360 nm excitation and 615 nm and 650 nm emission filters respectively. Time resolved parameters for Europuium were 1000 μs integration time with a 200 μs delay. APC parameters are set at 150 μs integration time with a 50 μs delay. Fluorescent intensities measured for APC are modified by dividing by the Eu fluorescence (APC/Eu). This ratio is then used to determine the unknown cortisol concentration by interpolation using a cortisol standard curve fitted with a 4-parameter logistic equation. These concentrations are then used to determine compound activity by plotting concentration versus % inhibition, fitting with a 4-parameter curve and reporting the IC50.

[2] = target: recombinant human 11β-HSD type 1 enzyme (Homo sapiens, UniProt P28845); assay: 11β-HSD Type 1 Enzyme Assay (NADPH fluorescence); format: biochemical; conditions: three hour incubation at room temperature, read-out: Human 11-βHSD1 IC50
Chain of recombinant human 11β-HSD type 1 enzyme (P28845 whole entry): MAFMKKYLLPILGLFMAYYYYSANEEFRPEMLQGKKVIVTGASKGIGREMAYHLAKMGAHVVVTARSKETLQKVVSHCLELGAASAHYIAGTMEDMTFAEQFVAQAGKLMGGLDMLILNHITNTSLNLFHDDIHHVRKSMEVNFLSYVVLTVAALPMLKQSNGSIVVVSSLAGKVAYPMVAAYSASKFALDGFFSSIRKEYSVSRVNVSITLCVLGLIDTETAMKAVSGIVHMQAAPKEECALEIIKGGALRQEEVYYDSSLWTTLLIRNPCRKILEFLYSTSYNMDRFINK
Method: 11β-HSD Type 1 Enzyme Assay
Human 11β-HSD type 1 activity is measured by assaying NADPH production by fluorescence assay. Solid compounds are dissolved in DMSO to a concentration of 10 mM. Twenty microliters of each are then transferred to a column of a 96-well polypropylene Nunc plate where they are further diluted 50-fold followed by subsequent two-fold titration, ten times across the plate with additional DMSO using a Tecan Genesis 200 automated system. Plates are then transferred to a Tecan Freedom 200 system with an attached Tecan Temo 96-well head and an Ultra 384 plate reader. Reagents are supplied in 96-well polypropylene Nunc plates and are dispensed individually into black 96-well Molecular Devices High Efficiency assay plates (40 μL/well capacity) in the following fashion: 9 μL/well of substrate (2.22 mM NADP, 55.5 μM Cortisol, 10 mM Tris, 0.25% Prionex, 0.1% Triton X100), 3 μL/well of water to compound wells or 3 μL to control and standard wells, 6 μL/well recombinant human 11β-HSD type 1 enzyme, 2 μL/well of compound dilutions. […] Final DMSO concentration is 0.5% for all compounds, controls and standards. Plates are then placed on a shaker by the robotic arm of the Tecan for 15 seconds before being covered and stacked for a three hour incubation period at room temperature. Upon completion of this incubation, the Tecan robotic arm removes each plate individually from the stacker and places them in position for addition of 5 μL/well of a 250 μM carbenoxolone solution to stop the enzymatic reaction. Plates are then shaken once more for 15 seconds then placed into an Ultra 384 microplate reader (355EX/460EM) for detection of NADPH fluorescence.

cortisone conversion = assay: Acute In Vivo Cortisone Conversion Assay; set-up: species or system male C57BL/6 mice; conditions: mice, oral dose of 10 mg/kg, cortisone challenge 30 mg/kg s.c. after 16 hours, serum cortisol by LC-MS/MS
Method: Acute In Vivo Cortisone Conversion Assay
In general, compounds are dosed orally into mice, the mice are challenged with a subcutaneous injection of cortisone at a set timepoint after compound injection, and the blood of each animal is collected some time later. Separated serum is then isolated and analyzed for levels of cortisone and cortisol by LC-MS/MS, followed by calculation of mean cortisol and percent inhibition of each dosing group. Specifically, male C57BL/6 mice are obtained from Harlan Sprague Dawley at average weight of 25 grams. Exact weights are taken upon arrival and the mice randomized into groups of similar weights. Compounds are prepared in 1% w-w HEC, 0.25% w-w polysorbate 80, 0.05% w-w Dow Corning antifoam #1510-US at various doses based on assumed average weight of 25 grams. Compounds are dosed orally, 200 μl per animal, followed by a subcutaneous dose, 200 μl per animal, of 30 mg/kg cortisone at 1 to 24 hours post compound dose. At 10 minutes post cortisone challenge, each animal is euthanized for 1 minute in a CO2 chamber, followed by blood collection via cardiac puncture into serum separator tubes. Once fully clotted, tubes are spun at 2500×g, 4° C. for 15 minutes, the serum transferred to wells of 96-well plates (Corning Inc, Costar #4410, cluster tubes, 1.2 ml, polypropylene), and the plates are frozen at −20° C. until analysis by LC-MS/MS. For analysis, serum samples are thawed and the proteins are precipitated by the addition of acetonitrile containing d-4-cortisol internal standard. Samples are vortex mixed and centrifuged. The supernatant is removed and dried under a stream of warm nitrogen. Extracts are reconstituted in methanol/water (1:1) and injected onto the LC-MS/MS system. The levels of cortisone and cortisol are assayed by selective reaction monitoring mode following positive ACPI ionization on a triple quadrupole mass spectrophotometer.

T1 sequence (P28845 whole entry): as above

Row | IC50 [1] | IC50 [2] | Compound | % Inhibition after 16 hours (dose of 10 (mg/kg)) (cortisone conversion)
1 | 0.6 nM | 75.4 nM | O=C1[C@H](Cc2c(Cl)cc(-c3ccc(N4CCOCC4)cc3)cc2Cl)CCN1C1CCc2[nH]cnc2C1 (stereo partly drawn) [Example 29, (R)-3-(3,5-Dichloro-4′-morpholin-4-yl-biphenyl-4-ylmethyl)-1-(4,5,6,7-tetrahydro-1H-benzoimidazol-5-yl)-pyrrolidin-2-one] | 52%
2 | 3 nM | 175 nM | O=C1[C@H](Cc2c(Cl)cc(-c3ccc(N4CCOCC4)nc3F)cc2Cl)CCN1C1CCc2[nH]cnc2C1 (stereo partly drawn) [Example 32, (R)-3-[2,6-Dichloro-4-(2-fluoro-6-morpholin-4-yl-pyridin-3-yl)-benzyl]-1-(4,5,6,7-tetrahydro-1H-benzoimidazol-5-yl)-pyrrolidin-2-one] | 59.2%

Second part, the compound before the results:

Row | Compound | IC50 [1] | IC50 [2] | % Inhibition after 16 hours (dose of 10 (mg/kg)) (cortisone conversion)
3 | O=C1C(Cc2c(Cl)cc(-c3ccc(F)cc3)cc2Cl)CCN1C1CCc2[nH]cnc2C1 (stereo not shown) [Example 15, 3-(3,5-Dichloro-4′-fluoro-biphenyl-4-ylmethyl)-1-(4,5,6,7-tetrahydro-1H-benzoimidazol-5-yl)-pyrrolidin-2-one] | 3.2 nM | 214 nM | 
4 | O=C(c1ccc(-c2cc(Cl)c(C[C@@H]3CCN(C4CCc5nc[nH]c5C4)C3=O)c(Cl)c2)cc1)N1CCC(C(F)(F)F)CC1 (stereo partly shown) [Example 42, 3-[R]-[3,5-Dichloro-4′-(4-trifluoromethyl-piperidine-1-carbonyl)-biphenyl-4-ylmethyl]-1-(4,5,6,7-tetrahydro-3H-benzoimidazol-5-yl)-pyrrolidin-2-one] | 4.5 nM | 143 nM | 98.4%
5 | O=C1C(Cc2c(Cl)cc(-c3ccc(Cl)cc3)cc2Cl)CCN1C1CCc2nc[nH]c2C1 (stereo not shown) [Example 1, 1-(4,5,6,7-Tetrahydro-3H-benzoimidazol-5-yl)-3-(3,5,4′-trichloro-biphenyl-4-ylmethyl)-pyrrolidin-2-one] | 6.8 nM | 325 nM | 
